Results as given in ChEMBL document CHEMBL4130627, “Prodrugs of the Phosphoribosylated Forms of Hydroxypyrazinecarboxamide Pseudobase T-705 and Its De-Fluoro Analogue T-1105 as Potent Influenza Virus Inhibitors” (J Med Chem, 2018).
pEC50, pIC50: −log10 of the molar value. Active and inactive are the calls of the source. The rule behind the calls is not given here.

How the values were obtained:
Influenza B virus [1] = experiment: microbe, parasite or virus in culture; conditions: Ned/537/05, MDCK, 72 h
Description: Antiviral activity against Influenza virus B/Ned/537/05 infected in MDCK cells assessed as reduction in viral replication at 3 days post infection by microscopic analysis

Liver carboxylesterase [2] = molecular target: T1, Liver carboxylesterase (Sus scrofa, UniProt Q29550); experiment: Prodrug activation assessed as pig liver esterase mediated metabolite formation after 30 hrs by RP-HPLC chromatogram analysis; type: ADME; conditions: isolated protein
T1 sequence (Q29550 whole entry): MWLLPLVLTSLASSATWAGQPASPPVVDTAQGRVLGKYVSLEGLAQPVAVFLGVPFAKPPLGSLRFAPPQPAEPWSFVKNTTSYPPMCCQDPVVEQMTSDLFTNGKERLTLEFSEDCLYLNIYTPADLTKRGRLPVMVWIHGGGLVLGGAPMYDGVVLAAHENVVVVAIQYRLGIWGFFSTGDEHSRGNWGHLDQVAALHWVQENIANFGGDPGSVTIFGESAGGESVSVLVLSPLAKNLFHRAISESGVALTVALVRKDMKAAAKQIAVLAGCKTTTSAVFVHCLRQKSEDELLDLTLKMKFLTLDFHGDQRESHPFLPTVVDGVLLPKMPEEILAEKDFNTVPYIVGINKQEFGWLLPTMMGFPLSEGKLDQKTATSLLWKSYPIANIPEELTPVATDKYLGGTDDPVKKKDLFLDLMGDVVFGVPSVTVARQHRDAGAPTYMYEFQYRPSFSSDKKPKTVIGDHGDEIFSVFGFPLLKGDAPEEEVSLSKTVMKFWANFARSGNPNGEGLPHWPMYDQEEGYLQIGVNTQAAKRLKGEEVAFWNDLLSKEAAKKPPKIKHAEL

[3] = Prodrug activation in phosphate buffer at pH 7.3 assessed as metabolite formation after 30 hrs by RP-HPLC chromatogram analysis; type: physicochemical; conditions: pH 7.3, 30 h
Influenza A virus [4] = experiment: microbe, parasite or virus in culture; conditions: MDCK, 72 h
Description: Antiviral activity against Influenza virus A/X-31 infected in MDCK cells assessed as reduction in viral replication at 3 days post infection by microscopic analysis

[5] = Stability of the compound in phosphate buffer at pH 7.3 after 30 hrs by RP-HPLC chromatogram analysis; type: physicochemical; conditions: pH 7.3, 30 h
[6] = Cytotoxicity against MDCK cells assessed as change in cell morphology after 3 days by microscopic analysis; type: cell-based, Canis lupus familiaris; conditions: dog
[7] = Cytotoxicity against MDCK cells assessed as reduction in cell viability after 3 days by formazan-based MTS assay; design: species or system Canis lupus familiaris; conditions: dog
Influenza A virus [8] = experiment: microbe, parasite or virus in culture; conditions: MDCK, 72 h; remark: listed apart in the source
Description: Antiviral activity against Influenza virus A/X-31 infected in MDCK cells assessed as reduction in viral replication at 3 days post infection by formazan-based MTS assay

Liver carboxylesterase [9] = molecular target: T1, Liver carboxylesterase; experiment: Drug metabolism assessed as pig liver esterase mediated 4-((((((2R,3S,4R,5R)-5-(3-carbamoyl-5-fluoro-2-oxopyrazin-1(2H)-yl)-3,4-dihydroxytetrahydrofuran-2-yl)methoxy)(hydroxy)phosphoryloxy)(hydroxy)[…])methyl)phenyl pentanoate formation at 450 uM after 2 hrs by RP-HPLC chromatogram analysis; type: ADME; conditions: isolated protein
Influenza B virus [10] = experiment: microbe, parasite or virus in culture; conditions: Ned/537/05, MDCK, 72 h; remark: listed apart in the source
Description: Antiviral activity against Influenza virus B/Ned/537/05 infected in MDCK cells assessed as reduction in viral replication at 3 days post infection by formazan-based MTS assay

[11] = Cytotoxicity against HGPRT deficient 6-thioguanine-resistant MDCK cells assessed as change in cell morphology after 3 days by microscopic analysis; type: cell-based, Canis lupus familiaris; conditions: dog
[12] = Half life of the compound in 25 mM phosphate buffe at pH 1.5 to 7.3 by RP-HPLC analysis; type: physicochemical; conditions: phosphate buffer
[13] = Prodrug activation in phosphate buffer at pH 7.3 assessed as half life for T-1105-RMP formation up to 332 hrs by RP-HPLC-UV analysis; type: physicochemical; conditions: pH 7.3, 332 h
MDCK [14] = type: cell-based, Canis lupus familiaris; conditions: dog, 2 h, 500 µM
MDCK [15] = experiment: Prodrug activation in MDCK cells assessed as T-1105-RDP formation at 500 uM after 2 hrs by RP-HPLC-UV analysis; type: cell-based, Canis lupus familiaris; conditions: dog
[16] = Drug metabolism in MDCK cells assessed as T-1105-RDP formation at 450 uM up to 4 hrs by RP-HPLC-UV analysis; type: ADME, cell-based, Canis lupus familiaris; conditions: dog
MDCK [17] = experiment: Prodrug activation in MDCK cells assessed as T-1105-RMP formation at 450 uM up to 4 hrs by RP-HPLC-UV analysis; type: cell-based, Canis lupus familiaris; conditions: dog
[18] = Drug metabolism in MDCK cells assessed as 4-((((((2R,3S,4R,5R)-5-(3-carbamoyl-2-oxopyrazin-1(2H)-yl)-3,4-dihydroxytetrahydrofuran-2-yl)methoxy)(hydroxy)phosphoryloxy)(hydroxy)phosphoryloxy)methyl)phenyl decanoate formation at 450 uM up to 4 hrs by RP-HPLC-UV analysis; type: ADME, cell-based, Canis lupus familiaris; conditions: dog
MDCK [19] = experiment: Prodrug activation in MDCK cells assessed as T-1105-RTP formation at 450 uM up to 4 hrs by RP-HPLC-UV analysis; type: cell-based, Canis lupus familiaris; conditions: dog
[20] = Inhibition of Influenza virus A/X-31 RNA dependent RNA polymerase using ApG primer [adenyl (3'-5') guanosine] and [8-3H]GTP after 1 hr by filter-based assay; design: species or system Influenza A virus (A/X-31(H3N2))
[21] = Inhibition of Influenza virus B/Ned/537/05 RNA dependent RNA polymerase using ApG primer [adenyl (3'-5') guanosine] and [8-3H]GTP after 1 hr by filter-based assay
MDCK [22] = experiment: Prodrug activation in HGPRT deficient MDCK cells assessed as T-1105-RMP formation at 465 uM after 1 to 840 mins by RP-HPLC-UV analysis; type: cell-based, Canis lupus familiaris; conditions: dog
MDCK [23] = experiment: Prodrug activation in MDCK cells assessed as T-1105-RMP formation at 465 uM after 1 to 840 mins by RP-HPLC-UV analysis; type: cell-based, Canis lupus familiaris; conditions: dog
Liver carboxylesterase [24] = molecular target: T1, Liver carboxylesterase; experiment: Drug metabolism assessed as pig liver esterase mediated 4-(((((((2R,3S,4R,5R)-5-(3-carbamoyl-2-oxopyrazin-1(2H)-yl)-3,4-dihydroxytetrahydrofuran-2-yl)methoxy)(hydroxy)phosphoryloxy)(hydroxy)phosphoryloxy)(hydroxy)phosphoryloxy)methyl)phenyl decanoate formation at 450 uM after 1 to 8 hrs by RP-HPLC-UV analysis; type: ADME; conditions: isolated protein
Influenza A virus [25] = type: functional, organism-based; conditions: Influenza A virus (A/X-31(H3N2)); MDCK; 250 uM
Influenza A virus [26] = type: functional, organism-based; conditions: Influenza A virus (A/X-31(H3N2)); MDCK; 100 uM
Influenza A virus [27] = type: functional, organism-based; conditions: Influenza A virus (A/X-31(H3N2)); MDCK; 250 uM; remark: listed apart in the source
MDCK [28] = experiment: Prodrug activation in MDCK cells assessed as parent compound remaining at 714 uM after 25 hrs by RP-HPLC-UV analysis; type: cell-based, Canis lupus familiaris; conditions: dog
MDCK [29] = experiment: Prodrug activation in MDCK cells assessed as T-705-RMP formation at 714 uM after 25 hrs by RP-HPLC-UV analysis; type: cell-based, Canis lupus familiaris; conditions: dog
MDCK [30] = type: cell-based, Canis lupus familiaris; conditions: dog, 714 µM

| SMILES | pEC50 (Influenza B virus [1]) | pEC50 (Influenza A virus [4]) | MCC at 72 h [6] [µM] | CC50 at 72 h [7] [µM] | pEC50 (Influenza A virus [8]) | pEC50 (Influenza B virus [10]) | MCC at 72 h [11] [µM] | pIC50 [20] | other results |
| --- | --- | --- | --- | --- | --- | --- | --- | --- | --- |
| CCCCCCCCCCCCCCC(=O)Oc1ccc(COP(=O)(OCc2ccc(OC(=O)CCCC)cc2)OP(=O)(O)OC[C@H]2O[C@@H](n3cc(F)nc(C(N)=O)c3=O)[C@H](O)[C@@H]2O)cc1.CCN(CC)CC (some centres not stated) | 5.14 | 5.27 | 21 | 35 | 5.00 | 5.46 | 16 |  | Drug metabolism (Liver carboxylesterase [2]): Metabolite_Notdetected; Drug metabolism [3]: Metabolite_Notdetected; Stability [5]: Unstable; Drug metabolism (Liver carboxylesterase [9]): Metabolite_Detected |
| Nc1ncnc2c1ncn2[C@H]1CC[C@@H](COP2(=O)OCc3ccccc3O2)O1 (some centres not stated) |  |  |  |  |  |  |  |  | half-life [12]: 10 to 45 h |
| CC(C)(C)c1cc2c(c(C(C)(C)C)c1)OP(=O)(OC[C@H]1O[C@@H](n3ccnc(C(N)=O)c3=O)[C@H](O)[C@@H]1O)OC2 (some centres not stated) |  |  |  |  |  |  |  |  | t1/2 [13]: 16 h |
| CCCCCCCCCCCCCCC(=O)Oc1ccc(COP(=O)(OCc2ccc(OC(=O)CCCC)cc2)OP(=O)(O)OP(=O)(O)OC[C@H]2O[C@@H](n3ccnc(C(N)=O)c3=O)[C@H](O)[C@@H]2O)cc1.CCN(CC)CC.CCN(CC)CC (some centres not stated) | 5.00 | 5.22 | 16 | 38 | 5.17 | 5.22 | 16 |  | Drug metabolism (MDCK [14]): Metabolite_Detected; Drug metabolism (MDCK [15]): Metabolite_Detected; Drug metabolism [16]: Metabolite_Detected; Drug metabolism (MDCK [17]): Metabolite_Detected; Drug metabolism [18]: Metabolite_Detected; Drug metabolism (MDCK [19]): Metabolite_Notdetected |
| Nc1nc2c(ncn2[C@@H]2O[C@H](COP(=O)(O)OP(=O)(O)OP(=O)(O)O)[C@@H](O)[C@H]2F)c(=O)[nH]1 |  |  |  |  |  |  |  | 5.60 | pIC50 [21]: 5.36 |
| NC(=O)c1ncn([C@@H]2O[C@H](CO)[C@@H](O)[C@H]2O)n1 [RIBAVIRIN] | 5.23 |  | 59 | > 100 | 4.89 | 5.35 | 35 |  |  |
| NC(=O)c1nccn([C@@H]2O[C@H](COP(=O)(O)OP(=O)(O)OP(=O)(O)O)[C@@H](O)[C@H]2O)c1=O |  |  |  |  |  |  |  | 5.01 to 6.32 | Drug metabolism (MDCK [22]): Metabolite_Detected; Drug metabolism (MDCK [23]): Metabolite_Detected; pIC50 [21]: 6.16 |
| Nc1nc2c(ncn2[C@@H]2O[C@H](COP(=O)(O)OP(=O)(O)OP(=O)(O)O)C[C@H]2O)c(=O)[nH]1 |  |  |  |  |  |  |  | 4.80 |  |
| CC(=O)O[C@@H]1[C@H](OC(C)=O)[C@@H](COP2(=O)OCc3cccc(C)c3O2)O[C@H]1n1ccnc(C(N)=O)c1=O (some centres not stated) | < 3.40 | < 3.40 | 400 | > 400 | < 3.40 | 3.89 | 400 |  |  |
| NC(=O)c1nccn([C@@H]2O[C@H](CO)[C@@H](O)[C@H]2O)c1=O | 4.62 | 4.24 | > 250 | > 250 | 4.28 | 4.72 | > 250 |  |  |
| Cc1cccc2c1OP(=O)(OC[C@@H]1C=C[C@H](n3cnc4c(=O)[nH]cnc43)O1)OC2 (some centres not stated) |  |  |  |  |  |  |  |  | half-life [12]: 10 to 45 h |
| Cc1cccc2c1OP(=O)(OC[C@@H]1CC[C@H](n3cnc4c(=O)[nH]cnc43)O1)OC2 (some centres not stated) |  |  |  |  |  |  |  |  | half-life [12]: 10 to 45 h |
| Cc1cccc2c1OP(=O)(OC[C@H]1O[C@@H](n3ccnc(C(N)=O)c3=O)[C@H](O)[C@@H]1O)OC2 (some centres not stated) | 3.75 | 3.55 | > 400 | > 400 | < 3.40 | 3.87 | > 400 |  | t1/2 [13]: 1.2 h |
| NC(=O)c1nc(Br)cn([C@@H]2O[C@H](CO)[C@@H](O)[C@H]2O)c1=O | < 3.60 | < 3.60 | > 250 | > 250 | < 3.60 | < 3.60 | > 250 |  |  |
| CCCCCCCCCC(=O)Oc1ccc(COP(=O)(OCc2ccc(OC(=O)CCCCCCCCC)cc2)OP(=O)(O)OP(=O)(O)OC[C@H]2O[C@@H](n3ccnc(C(N)=O)c3=O)[C@H](O)[C@@H]2O)cc1.CCN(CC)CC.CCN(CC)CC | 5.59 | 5.59 | 16 | 30 | 5.44 | 5.62 | 13 | 3.90 to 4.31 | Drug metabolism (MDCK [14]): Metabolite_Detected; Drug metabolism (MDCK [15]): Metabolite_Detected; Drug metabolism [16]: Metabolite_Detected; Drug metabolism (MDCK [17]): Metabolite_Detected; Drug metabolism [18]: Metabolite_Detected; pIC50 [21]: 3.90 to 4.31; Drug metabolism (MDCK [19]): Metabolite_Notdetected; Drug metabolism (Liver carboxylesterase [24]): Metabolite_Detected |
| NC(=O)c1nc(F)cnc1O | 5.05 | 4.62 |  |  | 4.59 | 5.08 |  |  | inhibition (Influenza A virus [25]): Active; inhibition (Influenza A virus [26]): Active; inhibition (Influenza A virus [27]): inactive |
| NC(=O)c1nc(F)cn([C@@H]2O[C@H](COP(=O)(O)OP(=O)(O)OP(=O)(O)O)[C@@H](O)[C@H]2O)c1=O |  |  |  |  |  |  |  | 5.57 | pIC50 [21]: 5.57 |
| NC(=O)c1nc(F)c[nH]c1=O |  |  | > 250 | > 250 |  |  | > 250 |  | Stability (MDCK [28]): 65%; Drug metabolism (MDCK [29]): Metabolite_Detected; Drug metabolism (MDCK [30]): Metabolite_Notdetected |
| COc1ccc2c(c1)COP(=O)(OC[C@@H]1C=C[C@H](n3cnc4c(N)ncnc43)O1)O2 (some centres not stated) |  |  |  |  |  |  |  |  | half-life [12]: 10 to 45 h |
| CCCCCCCCCCCCCCC(=O)Oc1ccc(COP(=O)(OCc2ccc(OC(=O)CCCC)cc2)OP(=O)(O)OC[C@H]2O[C@@H](n3ccnc(C(N)=O)c3=O)[C@H](O)[C@@H]2O)cc1.CCN(CC)CC (some centres not stated) | 6.17 | 5.82 | 21 | 31 | 5.80 | 6.24 | 16 | 3.90 to 4.31 | Drug metabolism (MDCK [14]): Metabolite_Detected; Drug metabolism (MDCK [15]): Metabolite_Detected; Drug metabolism [16]: Metabolite_Detected; Drug metabolism (MDCK [17]): Metabolite_Detected; Drug metabolism [18]: Metabolite_Detected; pIC50 [21]: 3.90 to 4.31; Drug metabolism (MDCK [19]): Metabolite_Notdetected |
